Measured values: publication PMC4767141, “Discovery of Potent, Orally Bioavailable, Small-Molecule Inhibitors of WNT Signaling from a Cell-Based Pathway Screen” (Journal of Medicinal Chemistry, 2015)

Experiments:
[1] = target: T1, STK33 (Homo sapiens, UniProt Q9BYT3); assay: Millipore kinase panel; type: biochemical; settings: read-out: % Control
T1 construct: purchased Millipore KinaseProfiler (kinases); Cerep (receptors and ion channels)

[2] = target: T2, HIPK1 (Homo sapiens, UniProt Q86Z02); assay: Millipore kinase panel; type: biochemical; settings: read-out: % Control
T2 construct: purchased Millipore KinaseProfiler (kinases); Cerep (receptors and ion channels)

[3] = target: T3, PASK (Homo sapiens, UniProt Q96RG2); assay: Millipore kinase panel; type: biochemical; settings: read-out: % Control
T3 construct: purchased Millipore KinaseProfiler (kinases); Cerep (receptors and ion channels)

[4] = target: T4, PKG1BETA (Homo sapiens, UniProt Q13976); assay: Millipore kinase panel; type: biochemical; settings: ATP at Km
T4 construct: purchased Millipore

[5] = target: T5, CDK6/CYCLIND3 (Homo sapiens, UniProt Q00534); assay: Millipore kinase panel; type: biochemical; settings: read-out: % Control
T5 construct: purchased Millipore KinaseProfiler (kinases); Cerep (receptors and ion channels)
T5 sequence (Q00534 whole entry): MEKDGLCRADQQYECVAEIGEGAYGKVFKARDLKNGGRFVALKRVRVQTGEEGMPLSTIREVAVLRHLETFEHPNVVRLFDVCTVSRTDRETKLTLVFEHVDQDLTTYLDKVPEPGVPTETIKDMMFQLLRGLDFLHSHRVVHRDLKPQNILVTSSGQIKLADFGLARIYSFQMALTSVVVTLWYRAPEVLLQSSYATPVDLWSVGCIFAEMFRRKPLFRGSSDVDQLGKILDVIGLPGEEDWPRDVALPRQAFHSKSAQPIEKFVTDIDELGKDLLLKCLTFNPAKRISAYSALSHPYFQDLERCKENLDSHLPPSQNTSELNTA
T5 sequence (P30281 whole entry partner): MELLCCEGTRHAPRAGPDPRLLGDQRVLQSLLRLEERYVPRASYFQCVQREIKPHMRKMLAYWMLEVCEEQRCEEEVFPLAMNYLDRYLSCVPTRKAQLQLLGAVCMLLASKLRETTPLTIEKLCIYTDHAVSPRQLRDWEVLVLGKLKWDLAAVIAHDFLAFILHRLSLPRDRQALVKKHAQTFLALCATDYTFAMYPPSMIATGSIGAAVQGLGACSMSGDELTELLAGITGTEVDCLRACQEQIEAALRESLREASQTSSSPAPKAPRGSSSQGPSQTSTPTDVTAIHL

[6] = target: T6, KDR (Homo sapiens, UniProt P35968); assay: Millipore kinase panel; type: biochemical; settings: read-out: % Control
T6 construct: purchased Millipore KinaseProfiler (kinases); Cerep (receptors and ion channels)

[7] = target: T7, HIPK2 (Homo sapiens, UniProt Q9H2X6); assay: Millipore kinase panel; type: biochemical; settings: read-out: % Control
T7 construct: purchased Millipore KinaseProfiler (kinases); Cerep (receptors and ion channels)

[8] = target: T8, CLK3 (Homo sapiens, UniProt P49761); assay: Millipore kinase panel; type: biochemical; settings: read-out: % Control
T8 construct: purchased Millipore KinaseProfiler (kinases); Cerep (receptors and ion channels)

[9] = target: T9, 5-HT5a (h) (Homo sapiens, UniProt P47898); assay: CEREP binding panel; settings: agonist radioligand, read-out: % Inhibition of Control Specific Binding
T9 construct: purchased Millipore KinaseProfiler (kinases); Cerep (receptors and ion channels)
T9 sequence (P47898 whole entry): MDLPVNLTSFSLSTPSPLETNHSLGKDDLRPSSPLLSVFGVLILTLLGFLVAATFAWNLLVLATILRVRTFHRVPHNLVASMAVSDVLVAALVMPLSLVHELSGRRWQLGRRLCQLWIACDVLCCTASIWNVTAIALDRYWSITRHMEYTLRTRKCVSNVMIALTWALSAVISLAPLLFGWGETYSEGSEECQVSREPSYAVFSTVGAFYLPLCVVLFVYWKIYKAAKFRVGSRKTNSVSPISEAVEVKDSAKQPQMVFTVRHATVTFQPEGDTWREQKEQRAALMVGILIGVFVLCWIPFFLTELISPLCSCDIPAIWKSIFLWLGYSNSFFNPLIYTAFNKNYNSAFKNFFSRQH

[10] = target: T10, PKCALPHA (Homo sapiens, UniProt P17252); assay: Millipore kinase panel; type: biochemical; settings: read-out: % Control
T10 construct: purchased Millipore KinaseProfiler (kinases); Cerep (receptors and ion channels)

[11] = target: T11, GRK7 (Homo sapiens, UniProt Q8WTQ7); assay: Millipore kinase panel; type: biochemical; settings: read-out: % Control
T11 construct: purchased Millipore KinaseProfiler (kinases); Cerep (receptors and ion channels)

[12] = target: T12, β2 (h) (Homo sapiens, UniProt P07550); assay: CEREP binding panel; settings: agonist radioligand, read-out: % Inhibition of Control Specific Binding
T12 construct: purchased Millipore KinaseProfiler (kinases); Cerep (receptors and ion channels)
T12 sequence (P07550 whole entry): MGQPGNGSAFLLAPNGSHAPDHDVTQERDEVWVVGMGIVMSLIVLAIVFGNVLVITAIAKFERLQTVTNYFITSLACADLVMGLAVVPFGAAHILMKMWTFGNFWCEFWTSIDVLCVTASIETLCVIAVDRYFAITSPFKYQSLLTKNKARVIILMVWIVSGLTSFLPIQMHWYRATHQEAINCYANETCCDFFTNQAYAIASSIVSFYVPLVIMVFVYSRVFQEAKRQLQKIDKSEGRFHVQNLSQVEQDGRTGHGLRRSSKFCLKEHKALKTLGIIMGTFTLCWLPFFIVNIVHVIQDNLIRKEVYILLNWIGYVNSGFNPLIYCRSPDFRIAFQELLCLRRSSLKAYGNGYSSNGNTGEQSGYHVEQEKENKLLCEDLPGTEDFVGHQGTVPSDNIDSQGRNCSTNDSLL

[13] = target: T13, NEK6 (Homo sapiens, UniProt Q9HC98); assay: Millipore kinase panel; type: biochemical; settings: read-out: % Control
T13 construct: purchased Millipore KinaseProfiler (kinases); Cerep (receptors and ion channels)
T13 sequence (Q9HC98 whole entry): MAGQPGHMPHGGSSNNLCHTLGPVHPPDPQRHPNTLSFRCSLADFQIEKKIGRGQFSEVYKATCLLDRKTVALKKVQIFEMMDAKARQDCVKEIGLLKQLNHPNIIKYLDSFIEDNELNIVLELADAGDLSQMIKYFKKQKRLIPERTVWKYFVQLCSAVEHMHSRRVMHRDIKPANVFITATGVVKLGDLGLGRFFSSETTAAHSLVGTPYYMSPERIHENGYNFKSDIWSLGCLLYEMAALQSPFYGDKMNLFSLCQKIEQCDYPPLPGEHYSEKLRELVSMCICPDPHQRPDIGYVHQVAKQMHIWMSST

[14] = target: T14, LCK (Homo sapiens, UniProt P06239); assay: Millipore kinase panel; type: biochemical
T14 construct: purchased Millipore
T14 sequence (P06239 whole entry): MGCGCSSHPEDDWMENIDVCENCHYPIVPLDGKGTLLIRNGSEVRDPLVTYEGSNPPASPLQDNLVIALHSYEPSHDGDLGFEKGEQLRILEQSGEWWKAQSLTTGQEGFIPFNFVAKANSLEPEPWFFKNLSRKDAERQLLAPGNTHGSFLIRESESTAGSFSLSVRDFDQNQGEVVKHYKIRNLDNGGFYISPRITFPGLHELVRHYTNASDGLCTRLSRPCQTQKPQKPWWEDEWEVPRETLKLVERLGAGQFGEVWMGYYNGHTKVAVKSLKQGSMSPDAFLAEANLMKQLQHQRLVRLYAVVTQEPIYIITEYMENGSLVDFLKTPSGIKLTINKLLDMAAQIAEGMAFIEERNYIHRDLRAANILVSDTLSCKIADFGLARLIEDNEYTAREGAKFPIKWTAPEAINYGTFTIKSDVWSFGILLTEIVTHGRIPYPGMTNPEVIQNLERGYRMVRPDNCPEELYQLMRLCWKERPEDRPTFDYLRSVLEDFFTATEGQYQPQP

[15] = target: T15, 5-HT3 (h) (Homo sapiens, UniProt P46098); assay: CEREP binding panel; settings: antagonist radioligand, read-out: % Inhibition of Control Specific Binding
T15 construct: purchased Millipore KinaseProfiler (kinases); Cerep (receptors and ion channels)

[16] = target: T16, CHK1 (Homo sapiens, UniProt O14757); assay: Millipore kinase panel; type: biochemical; settings: read-out: % Control
T16 construct: purchased Millipore KinaseProfiler (kinases); Cerep (receptors and ion channels)

[17] = test system: α2 (non-selective); assay: CEREP binding panel; settings: 10 μM, antagonist radioligand
[18] = target: T17, ARK5 (Homo sapiens, UniProt O60285); assay: Millipore kinase panel; type: biochemical; settings: read-out: % Control
T17 construct: purchased Millipore KinaseProfiler (kinases); Cerep (receptors and ion channels)

[19] = target: T18, NEK7 (Homo sapiens, UniProt Q8TDX7); assay: Millipore kinase panel; type: biochemical; settings: read-out: % Control
T18 construct: purchased Millipore KinaseProfiler (kinases); Cerep (receptors and ion channels)

[20] = target: T19, MELK (Homo sapiens, UniProt Q14680); assay: Millipore kinase panel; type: biochemical; settings: read-out: % Control
T19 construct: purchased Millipore KinaseProfiler (kinases); Cerep (receptors and ion channels)

[21] = target: T20, CDK9/CYCLINT1 (Homo sapiens, UniProt P50750); assay: Millipore kinase panel; type: biochemical; settings: read-out: % Control
T20 construct: purchased Millipore KinaseProfiler (kinases); Cerep (receptors and ion channels)

[22] = target: T21, DAPK1 (Homo sapiens, UniProt P53355); assay: Millipore kinase panel; type: biochemical; settings: read-out: % Control
T21 construct: purchased Millipore KinaseProfiler (kinases); Cerep (receptors and ion channels)

[23] = target: T22, PRKAA1 (Homo sapiens, UniProt Q13131); assay: Millipore kinase panel; type: biochemical; settings: read-out: % Control
T22 construct: purchased Millipore KinaseProfiler (kinases); Cerep (receptors and ion channels)

[24] = target: T23, H2 (h) (Homo sapiens, UniProt P25021); assay: CEREP binding panel; settings: antagonist radioligand, read-out: % Inhibition of Control Specific Binding
T23 construct: purchased Millipore KinaseProfiler (kinases); Cerep (receptors and ion channels)
T23 sequence (P25021 whole entry): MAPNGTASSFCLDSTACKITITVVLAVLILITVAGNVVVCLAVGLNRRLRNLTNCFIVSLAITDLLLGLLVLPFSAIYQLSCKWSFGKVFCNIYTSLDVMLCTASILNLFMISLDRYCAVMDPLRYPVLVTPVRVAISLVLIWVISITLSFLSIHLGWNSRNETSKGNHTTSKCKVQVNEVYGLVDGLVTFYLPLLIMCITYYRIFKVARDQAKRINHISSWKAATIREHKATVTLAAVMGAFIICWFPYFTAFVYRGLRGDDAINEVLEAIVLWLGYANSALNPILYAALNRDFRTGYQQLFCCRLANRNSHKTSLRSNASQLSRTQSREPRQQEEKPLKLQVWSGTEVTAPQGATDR

[25] = target: T24, ASK1 (Homo sapiens, UniProt Q99683); assay: Millipore kinase panel; type: biochemical; settings: read-out: % Control
T24 construct: purchased Millipore KinaseProfiler (kinases); Cerep (receptors and ion channels)

[26] = target: T25, WNK2 (Homo sapiens, UniProt Q9Y3S1); assay: Millipore kinase panel; type: biochemical; settings: read-out: % Control
T25 construct: purchased Millipore KinaseProfiler (kinases); Cerep (receptors and ion channels)

[27] = target: T26, SRC (Homo sapiens, UniProt P12931); assay: Millipore kinase panel; type: biochemical; settings: read-out: % Control
T26 construct: purchased Millipore KinaseProfiler (kinases); Cerep (receptors and ion channels)

[28] = target: T27, FGFR1 (Homo sapiens, UniProt P11362); assay: Millipore kinase panel; type: biochemical; settings: read-out: % Control
T27 construct: purchased Millipore KinaseProfiler (kinases); Cerep (receptors and ion channels)

[29] = target: T28, RIPK2 (Homo sapiens, UniProt O43353); assay: Millipore kinase panel; type: biochemical; settings: read-out: % Control
T28 construct: purchased Millipore KinaseProfiler (kinases); Cerep (receptors and ion channels)

[30] = target: T29, TRKB (Homo sapiens, UniProt Q16620); assay: Millipore kinase panel; type: biochemical; settings: read-out: % Control
T29 construct: purchased Millipore KinaseProfiler (kinases); Cerep (receptors and ion channels)

[31] = target: T30, ALK (Homo sapiens, UniProt Q9UM73); assay: Millipore kinase panel; type: biochemical; settings: read-out: % Control
T30 construct: purchased Millipore KinaseProfiler (kinases); Cerep (receptors and ion channels)

[32] = target: T31, CAMKIIBETA (Homo sapiens, UniProt Q13554); assay: Millipore kinase panel; type: biochemical; settings: read-out: % Control
T31 construct: purchased Millipore KinaseProfiler (kinases); Cerep (receptors and ion channels)
T31 sequence (Q13554 whole entry): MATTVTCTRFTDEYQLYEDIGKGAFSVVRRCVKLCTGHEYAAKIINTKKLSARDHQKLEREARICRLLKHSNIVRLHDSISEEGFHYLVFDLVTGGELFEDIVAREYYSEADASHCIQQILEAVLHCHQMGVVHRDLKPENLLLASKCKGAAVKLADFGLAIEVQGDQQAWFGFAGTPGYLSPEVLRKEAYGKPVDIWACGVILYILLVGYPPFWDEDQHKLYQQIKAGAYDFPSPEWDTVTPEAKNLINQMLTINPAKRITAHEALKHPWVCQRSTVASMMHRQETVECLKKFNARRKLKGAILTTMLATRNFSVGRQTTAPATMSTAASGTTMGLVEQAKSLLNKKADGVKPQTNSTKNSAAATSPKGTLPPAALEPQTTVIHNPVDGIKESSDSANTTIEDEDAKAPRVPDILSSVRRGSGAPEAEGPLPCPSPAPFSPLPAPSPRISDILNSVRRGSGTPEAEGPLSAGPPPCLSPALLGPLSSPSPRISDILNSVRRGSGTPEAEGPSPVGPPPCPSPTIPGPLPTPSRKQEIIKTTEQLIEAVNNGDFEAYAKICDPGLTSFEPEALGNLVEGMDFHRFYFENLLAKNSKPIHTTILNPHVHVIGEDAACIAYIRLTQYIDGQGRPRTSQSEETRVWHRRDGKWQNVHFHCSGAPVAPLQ

[33] = target: T32, CB1 (h) (Homo sapiens, UniProt P21554); assay: CEREP binding panel; settings: 10 μM, agonist radioligand
T32 construct: purchased Millipore KinaseProfiler (kinases); Cerep (receptors and ion channels)

[34] = target: T33, RON (Homo sapiens, UniProt Q04912); assay: Millipore kinase panel; type: biochemical; settings: read-out: % Control
T33 construct: purchased Millipore KinaseProfiler (kinases); Cerep (receptors and ion channels)

[35] = target: T34, NLK (Homo sapiens, UniProt Q9UBE8); assay: Millipore kinase panel; type: biochemical; settings: read-out: % Control
T34 construct: purchased Millipore KinaseProfiler (kinases); Cerep (receptors and ion channels)

[36] = target: T35, SAPK3 (Homo sapiens, UniProt P53778); assay: Millipore kinase panel; type: biochemical; settings: read-out: % Control
T35 construct: purchased Millipore KinaseProfiler (kinases); Cerep (receptors and ion channels)
T35 sequence (P53778 whole entry): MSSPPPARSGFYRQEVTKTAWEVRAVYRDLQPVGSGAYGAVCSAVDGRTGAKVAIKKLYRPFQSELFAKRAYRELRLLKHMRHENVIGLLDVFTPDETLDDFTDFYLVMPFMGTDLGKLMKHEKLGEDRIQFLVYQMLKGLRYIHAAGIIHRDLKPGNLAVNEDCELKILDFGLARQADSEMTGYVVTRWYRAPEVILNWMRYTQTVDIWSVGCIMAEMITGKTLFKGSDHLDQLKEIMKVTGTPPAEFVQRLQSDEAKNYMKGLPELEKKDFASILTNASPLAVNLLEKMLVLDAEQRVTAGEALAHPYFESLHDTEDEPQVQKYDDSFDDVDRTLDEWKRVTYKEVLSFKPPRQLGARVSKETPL

[37] = target: T36, LIMK1 (Homo sapiens, UniProt P53667); assay: Millipore kinase panel; type: biochemical; settings: read-out: % Control
T36 construct: purchased Millipore KinaseProfiler (kinases); Cerep (receptors and ion channels)

[38] = target: T37, CK2 (Homo sapiens, UniProt P68400); assay: Millipore kinase panel; type: biochemical; settings: read-out: % Control
T37 construct: purchased Millipore KinaseProfiler (kinases); Cerep (receptors and ion channels)

[39] = target: T38, GRK5 (Homo sapiens, UniProt P34947); assay: Millipore kinase panel; type: biochemical; settings: read-out: % Control
T38 construct: purchased Millipore KinaseProfiler (kinases); Cerep (receptors and ion channels)

[40] = target: T39, RSK1 (Homo sapiens, UniProt Q15418); assay: Millipore kinase panel; type: biochemical; settings: read-out: % Control
T39 construct: purchased Millipore KinaseProfiler (kinases); Cerep (receptors and ion channels)

[41] = target: T40, VRK2 (Homo sapiens, UniProt Q86Y07); assay: Millipore kinase panel; type: biochemical; settings: read-out: % Control
T40 construct: purchased Millipore KinaseProfiler (kinases); Cerep (receptors and ion channels)

[42] = target: T41, MSK1 (Homo sapiens, UniProt O75582); assay: Millipore kinase panel; type: biochemical; settings: read-out: % Control
T41 construct: purchased Millipore KinaseProfiler (kinases); Cerep (receptors and ion channels)
T41 sequence (O75582 whole entry): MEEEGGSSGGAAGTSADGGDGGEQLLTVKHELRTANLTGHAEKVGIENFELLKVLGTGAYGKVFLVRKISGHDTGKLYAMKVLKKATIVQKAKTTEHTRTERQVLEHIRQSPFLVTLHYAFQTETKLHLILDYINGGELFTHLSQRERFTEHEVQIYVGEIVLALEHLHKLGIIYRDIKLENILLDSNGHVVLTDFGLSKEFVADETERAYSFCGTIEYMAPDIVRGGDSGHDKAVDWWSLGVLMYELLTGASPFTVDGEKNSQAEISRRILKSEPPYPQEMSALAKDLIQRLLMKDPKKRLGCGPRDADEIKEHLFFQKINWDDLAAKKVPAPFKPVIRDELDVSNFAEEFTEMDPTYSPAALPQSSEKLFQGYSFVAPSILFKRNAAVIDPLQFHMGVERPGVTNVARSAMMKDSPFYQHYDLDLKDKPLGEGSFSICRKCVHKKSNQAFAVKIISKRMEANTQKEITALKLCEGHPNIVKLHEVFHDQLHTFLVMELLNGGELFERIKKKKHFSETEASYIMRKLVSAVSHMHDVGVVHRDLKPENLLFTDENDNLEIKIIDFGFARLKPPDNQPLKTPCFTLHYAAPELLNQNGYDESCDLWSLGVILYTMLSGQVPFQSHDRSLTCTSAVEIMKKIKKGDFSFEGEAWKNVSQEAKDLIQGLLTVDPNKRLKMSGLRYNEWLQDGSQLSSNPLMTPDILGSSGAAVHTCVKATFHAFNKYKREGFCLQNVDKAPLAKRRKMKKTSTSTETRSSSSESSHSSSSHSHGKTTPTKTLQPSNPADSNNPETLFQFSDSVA

[43] = target: T42, PKA (Homo sapiens, UniProt P17612); assay: Millipore kinase panel; type: biochemical; settings: read-out: % Control
T42 construct: purchased Millipore KinaseProfiler (kinases); Cerep (receptors and ion channels)

[44] = target: T43, μ (MOP) (h) (Homo sapiens, UniProt P35372); assay: CEREP binding panel; settings: 10 μM, agonist radioligand
T43 construct: purchased Millipore KinaseProfiler (kinases); Cerep (receptors and ion channels)

T1 sequence (Q9BYT3 whole entry): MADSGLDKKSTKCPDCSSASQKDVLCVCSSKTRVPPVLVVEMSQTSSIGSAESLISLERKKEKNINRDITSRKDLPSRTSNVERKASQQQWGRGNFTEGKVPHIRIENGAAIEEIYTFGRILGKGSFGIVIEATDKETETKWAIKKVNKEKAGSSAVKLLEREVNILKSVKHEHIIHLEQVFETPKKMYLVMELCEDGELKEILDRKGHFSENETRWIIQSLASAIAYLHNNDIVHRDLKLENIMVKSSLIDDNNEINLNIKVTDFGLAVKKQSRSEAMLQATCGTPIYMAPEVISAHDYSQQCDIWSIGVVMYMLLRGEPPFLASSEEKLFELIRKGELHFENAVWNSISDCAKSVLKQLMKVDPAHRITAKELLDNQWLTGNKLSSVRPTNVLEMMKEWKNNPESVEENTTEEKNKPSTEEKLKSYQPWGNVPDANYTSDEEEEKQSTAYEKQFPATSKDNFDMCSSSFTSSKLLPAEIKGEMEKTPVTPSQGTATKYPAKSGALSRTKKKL

SMILES: Cn1cc(-c2ccc(-c3cncc(Cl)c3N3CCC4(CCNC4=O)CC3)cc2)cn1 [Compound 74, 8-(3-Chloro-5-(4-(1-methyl-1H-pyrazol-4-yl)phenyl)pyridin-4-yl)-2,8-diazaspiro[4.5]decan-1-one]
- remaining activity at 1 µM [1]: 9%
- remaining activity at 1 µM [2]: 10%
- remaining activity at 1 µM [3]: 18%
- IC50 [4]: > 10 µM
- remaining activity at 1 µM [5]: -3%
- remaining activity at 1 µM [6]: 10%
- remaining activity at 1 µM [7]: -12%
- remaining activity at 1 µM [8]: -8%
- inhibition at 10 µM [9]: 1%
- remaining activity at 1 µM [10]: -5%
- remaining activity at 1 µM [11]: 7%
- inhibition at 10 µM [12]: 6%
- remaining activity at 1 µM [13]: -10%
- IC50 ([14]; ATP at Km): > 10 µM
- remaining activity at 1 µM ([14]; read-out: % Control): 10%
- inhibition at 10 µM [15]: 9%
- remaining activity at 1 µM [16]: -17%
- % Inhibition of Control Specific Binding [17]: 0%
- remaining activity at 1 µM [18]: -2%
- remaining activity at 1 µM [19]: 2%
- remaining activity at 1 µM [20]: 32%
- remaining activity at 1 µM [21]: -29%
- remaining activity at 1 µM [22]: 0%
- remaining activity at 1 µM [23]: 2%
- inhibition at 10 µM [24]: -2%
- remaining activity at 1 µM [25]: -15%
- remaining activity at 1 µM [26]: 0%
- remaining activity at 1 µM [27]: -6%
- remaining activity at 1 µM [28]: -49%
- remaining activity at 1 µM [29]: -6%
- remaining activity at 1 µM [30]: -25%
- remaining activity at 1 µM [31]: -22%
- remaining activity at 1 µM [32]: 8%
- % Inhibition of Control Specific Binding [33]: 2%
- remaining activity at 1 µM [34]: -9%
- remaining activity at 1 µM [35]: 0%
- remaining activity at 1 µM [36]: 13%
- remaining activity at 1 µM [37]: 0%
- remaining activity at 1 µM [38]: -7%
- remaining activity at 1 µM [39]: -5%
- remaining activity at 1 µM [40]: -23%
- remaining activity at 1 µM [41]: -2%
- remaining activity at 1 µM [42]: 5%
- remaining activity at 1 µM [43]: 24%
- % Inhibition of Control Specific Binding [44]: 42%
